Results from patent US20020155084A1, “Nanoemulsion formulations” (The Regents of the University of the Michigan, priority 2000, published 2002).

Test system: hairy mouse skin
Settings: 2:1 nanoemulsion, aqueous phase 0.05 M HEPES pH 7.4; 5 μg/ml inulin or 3 μg/ml tranexamic acid, FIG. 9

Substance: inulin
- marker permeation slope: 0.233 % per hour per square centimeter
